Assay results: patent US11685782B2, “Methods of treating cancer using LSD1 inhibitors in combination with immunotherapy” (Children's Medical Center Corporation, priority 2017, dated 2023)

Tests used:
MCF-7 cells = experiment: RT-qPCR of selected ERVs, interferons and ISGs in MCF-7 cells treated with GSK-LSD1 (compound screen); assay type: cell-based, human; settings: GSK-LSD1 for 6 days, RT-qPCR normalized to GAPDH, relative to DMSO (FIG. 1A)
Procedure: FIG. 1A is a bar graph showing quantitative reverse transcription polymerase chain reaction (RT-qPCR) analysis of selected endogenous retroviruses (ERVs) (HERV-E, HERV-F, HERV-K, HML-2, and ERVL), IFNs (IFN-α, IFN-β and IL-28) and ISGs (ISG15 and OASL) in human MCF-7 breast cancer cells treated with or without GSK-LSD1 for 6 days. The RT-qPCR data were normalized to GAPDH and then relative to DMSO. RT-qPCR was performed in duplicates and repeated two to three times. Error bars represent the standard error of mean (SEM). *p<0.05, **p<0.01, ***p<0.001, ns, not significant, as determined by unpaired t-test.
MCF-7, T47D, B16, LLC and D4m cells were cultured in normal DMEM supplemented with 10% FBS and 1% penicillin/streptomycin in 5% CO2 incubator at 37° C. All cell lines were cultured in 5% CO2 incubator at 37° C., and passaged every 2-3 days. […]
All reagents, buffers and containers used for RNA work were RNase-free grade or treated with 0.1% v/v DEPC (Sigma-Aldrich cat #D5758) if applicable, to eliminate RNase contaminants in this section and other relevant sections. […] The obtained cDNA samples were diluted and used for real-time quantitative PCR (RT-qPCR). […]
Of note, the PCR primers detected overall transcript levels of the corresponding ERV subfamilies, which may be transcribed from multiple genomic loc. […]

AGO2 = experiment: Mass spectrometry of lysine methylation on FH-AGO2 purified from MCF-7 cells; assay type: cell-based, human; settings: overexpressed FH-AGO2 from MCF-7 cells, mass spectrometry (FIG. 5I)
From the text: FIG. 5I is a picture of immunoblots showing purified FH-AGO2 from MCF-7 cells treated by LSD1 KD or GSK-LSD1 as determined by mass spectrometry for the identification of lysine methylation. sh-Ctrl ([…]; SEQ ID NO: 156) and sh-LSD1, GSK-LSD1(VGK(me)[…]; SEQ ID NO: 157).
To investigate whether LSD1 regulates AGO2 stability by controlling AGO2 methylation, overexpressed FH-AGO2 from MCF-7 cells with or without LSD1 inhibition were purified and used for mass spectrometry analysis. […] To validate this finding, an antibody was raised that preferentially recognized AGO2 peptides mono-methylated at K726 (K726me1) compared with un-methylated or di-methylated peptides (FIG. 5J). Furthermore, this antibody detected increased K726me1 on ectopically expressed AGO2 when LSD1 was inhibited, which can be abrogated by substituting K726 with arginine (K726R) or alanine (K726A) (FIGS. 5K and 5L). […] To gain more insights into this regulation, an in vitro demethylation assay was performed using immunoprecipitated FH-LSD1, FH-LSD1-K661A (catalytically compromised LSD1), FH-AGO2 and FH-AGO2-K726R proteins purified from mammalian cells. FH-LSD1 but not FH-LSD1-K661A decreased K726me1 level on FH-AGO2, but had no observable effects on FH-AGO2-K726R (FIGS. 5N and 5O).

Compound: Cl.Cl.c1ccc([C@@H]2C[C@H]2NC2CCNCC2)cc1 (relative stereo) [GSK-LSD1, rel-N-[(1R,2S)-2-Phenylcyclopropyl]-4-Piperidinamine hydrochloride (1:2)]
- up-regulation of selected ERVs, type I and type III interferons and interferon-stimulated genes (ISGs) (MCF-7 cells): significantly induce the up-regulation
- methylation of AGO2 lysine 726 (K726) (AGO2): consistently mono-methylated
